Measurements published in patent US12138256B2, “Treatment of cardiopulmonary disorders” (Bayer Aktiengesellschaft, priority 2021, dated 2024).
“And” between values parts separate entries of the source, which are not always exact repeats. Equal entries are not always repeated. Where two headings read alike, the source gives them in different places.

Legend:
[1] = test system: thromboxane analog U46619 induced PAH in minipigs; experiment: PAH minipig model: comparison with and on top of standard of care (bosentan, sildenafil, riociguat); assay type: in vivo, Göttingen minipig; settings: for BP decrease % / PAP decrease %: % change per animal
Excerpt: Efficacy of inhaled comparative example 11 was compared with systemically applied bosentan, sildenafil and riociguat (see FIG. 53a) in the PAH minipig model. […] Therefore inhaled application of comparative example 11 offers clear benefits as systemic effects are avoided, compared to standard of care.

[2] = test system: thromboxane analog U46619 induced PAH in minipigs with ODQ or L-NAME pretreatment; experiment: PAH minipig model under oxidative stress / low NO (pretreatment by ODQ or L-NAME); assay type: in vivo, Göttingen minipig; design: PAP / BP: unit not given beside the values; settings: for BP / PAP: 30 μg/kg nominal dose inhaled
Experimental: To simulate conditions of oxidative stress or low NO concentrations as assumed to be present in different cardiovascular disorders, comparative example 11 was evaluated with and without pretreatment by ODQ (inhibitor of sGC) or L-NAME (NOS inhibitor). […] In contrast, the effects of Ventavis® under conditions of oxidative stress or low NO concentrations were not enhanced. In addition, also under these pathophysiological conditions the duration of action of comparative example 11 was much longer compared to Ventavis®.

[3] = test system: allergen-induced late airway hyperresponsiveness and inflammation in sensitized mice; experiment: Chronic asthma model: ovalbumin sensitized BALB/c mice, airway hyperresponsiveness and BAL (C-3.3); assay type: in vivo, mouse; settings: for inhibition at 0.1 mg/kg: Mus musculus, dexamethasone 18 h and 1 h before each Ova challenge, comparative example 11 high dose of 100 μg/kg 2 h before
Experimental: The study was conducted to investigate whether inhalative treatment with comparative example 11 has a protective effect on the experimentally allergen-induced late airway hyperresponsiveness and inflammation in sensitized mice. Female BALB/c mice were sensitized and boosted with Ovalbumin (Ova) and aluminium hydroxide adjuvant (day 0. 14 and 21) with the exception of the negative control group receiving NaCl. On day 28 and 29. the animals were challenged with Ova aerosol. On day 30, a hyperresponsiveness test followed by bronchoalveolar lavage (BAL) was performed in all animals of all groups. The treatment groups D (10 μg) and E (100 μg) were treated with comparative example 11 inhalationally 2 h before each Ova challenge. Group A and B, the positive and negative control groups, were treated correspondingly with the vehicle. The Ova-sensitized positive control group A should show the full allergic reaction and, in contrast, the sham-sensitized negative control group B should show no allergic response. As a reference group, the animals of group C were treated inhalative with the corticosteroid dexamethasone but—due to its different mechanism of action—18 h and 1 h before each Ova challenge (on day 27, 28 and 29). On day 30, 24 h after Ova challenge in the late allergic phase, lung function—especially RL—was measured in the orotracheally intubated mice and a test on airway hyperresponsiveness was performed (inhalational methacholine provocation in doubling dose steps). […] These inhibitory effects show the successful therapeutic intervention.

[4] = test system: guinea pig trachea pre-contracted with carbachol; experiment: Bronchorelaxation in vitro: carbachol pre-contracted guinea pig trachea rings, wash-out recovery factor (C-3.1); settings: 1 μmol/l
Experimental: Male Dunkin Hartley guinea pig were euthanized using carbon dioxide. The primary bronchus was removed and placed in ice-cold Krebs-Henseleit buffer of following composition (in mmol/l): […] For recording of isometric tension, the bronchial rings were mounted between two hooks. One hook was connected to a force transducer the other was moveable and allowed a precise adjustment of resting tension at 1.5 g. During the equilibration period of 60 min the tissue was washed every 20 min with buffer. […] After 30 min, a cumulative dose response curve of the test compound was constructed. Every concentration was incubated till the response was stable. […] The relaxation was expressed as percentage tension. […] The recovery factor was calculated as a ratio of bronchodilation 1 h after compound application and bronchodilation 1 h after removal (wash out) of test compound. […] Relaxation via Cinaciguat (comparative example 1) and Riociguat (comparative example 2) reached a steady state within the 1 h incubation time. […] In contrast, relaxation induced by comparative example 11 was further progressing during the wash out period (recovery factor 1.41).

[5] = 30 μg/kg inhaled on top of Bosentan 1 mg/kg
[6] = 30 μg/kg inhaled on top of Riociguat 3 μg/kg/h
[7] = 30 μg/kg inhaled on top of Sildenafil 300 μg/kg/h
[8] = 30 μg/kg nominal dose inhaled, alone

SMILES: O=C(O)c1ccc(CCN(CCc2ccccc2OCc2ccc(-c3ccc(C(F)(F)F)cc3)cc2Cl)[C@H]2CCCc3nc(C(=O)O)ccc32)cc1 [comparative example 11, (5S)-5-{[2-(4-carboxyphenyl)ethyl][2-(2-{[3-chloro-4′-(trifluoromethyl)[biphenyl]-4-yl]methoxy}phenyl)ethyl]amino}-5,6,7,8-tetrahydroquinoline-2-carboxylic acid]
- BP decrease % [1, 5]: −12.8% and 3.6%
- PAP decrease % [1, 5]: −29.7% and −27.1%
- BP decrease % [1, 6]: 3.1% and −1.1% and 11.5%
- PAP decrease % [1, 6]: −29.7% and −24.2% and −26.3%
- BP decrease % [1, 7]: −6.9% and −6.4% and 1.2%
- PAP decrease % [1, 7]: −33.6% and −36.9% and −42.8%
- BP decrease % [1, 8]: −6.8% and 1.6% and 3.5%
- PAP decrease % [1, 8]: −19.9% and −22.8% and −21.7%
- BP decrease % ([1]; 100 μg/kg nominal dose inhaled): −4.5% and −9.9% and −3.1%
- PAP decrease % ([1]; 100 μg/kg nominal dose inhaled): −33.1% and −45.1% and −38.2%
- efficacy regarding PAP on top of bosentan, sildenafil or riociguat ([1]; comparative example 11 30 μg/kg inhaled): maintained its efficacy regarding PAP
- BP ([2]; L-NAME pretreatment, Time 170): 103.0 and 135.0 and 123.0
- PAP ([2]; L-NAME pretreatment, Time 170): 39.5 and 36.2 and 34.6
- BP ([2]; L-NAME pretreatment, Time 180): 104.0 and 139.0 and 127.0
- PAP ([2]; L-NAME pretreatment, Time 180): 38.9 and 29.1 and 30.8
- BP ([2]; L-NAME pretreatment, Time 190): 104.0 and 137.0 and 127.0
- PAP ([2]; L-NAME pretreatment, Time 190): 38.0 and 25.9 and 28.4
- BP ([2]; L-NAME pretreatment, Time 200): 104.0 and 135.0 and 129.0
- PAP ([2]; L-NAME pretreatment, Time 200): 36.8 and 24.6 and 28.1
- BP ([2]; L-NAME pretreatment, Time 210): 105.0 and 133.0 and 127.0
- PAP ([2]; L-NAME pretreatment, Time 210): 36.5 and 23.9 and 26.6
- BP ([2]; L-NAME pretreatment, Time 220): 107.0 and 131.0 and 127.0
- PAP ([2]; L-NAME pretreatment, Time 220): 36.6 and 23.8 and 25.5
- BP ([2]; L-NAME pretreatment, Time 230): 108.0 and 127.0 and 129.0
- PAP ([2]; L-NAME pretreatment, Time 230): 35.5 and 23.6 and 25.6
- BP ([2]; L-NAME pretreatment, Time 240): 106.0 and 128.0
- PAP ([2]; L-NAME pretreatment, Time 240): 35.0 and 24.0 and 25.0
- BP ([2]; L-NAME pretreatment, Time 250): 106.0 and 126.0 and 130.0
- PAP ([2]; L-NAME pretreatment, Time 250): 34.5 and 23.5 and 24.8
- BP ([2]; L-NAME pretreatment, Time 260): 107.0 and 126.0 and 130.0
- PAP ([2]; L-NAME pretreatment, Time 260): 34.6 and 24.2 and 24.7
- BP ([2]; L-NAME pretreatment, Time 270): 104.0 and 126.0 and 129.0
- PAP ([2]; L-NAME pretreatment, Time 270): 34.1 and 24.0 and 24.3
- BP ([2]; L-NAME pretreatment, Time 280): 103.0 and 125.0 and 129.0
- PAP ([2]; L-NAME pretreatment, Time 280): 33.4 and 23.7 and 24.4
- BP ([2]; L-NAME pretreatment, Time 290): 104.0 and 126.0 and 128.0
- PAP ([2]; L-NAME pretreatment, Time 290): 34.4 and 23.4 and 24.2
- BP ([2]; L-NAME pretreatment, Time 300): 105.0 and 125.0 and 127.0
- PAP ([2]; L-NAME pretreatment, Time 300): 34.2 and 24.1 and 24.0
- BP ([2]; L-NAME pretreatment, Time 310): 103.0 and 125.0 and 128.0
- PAP ([2]; L-NAME pretreatment, Time 310): 33.3 and 23.6 and 24.3
- BP ([2]; L-NAME pretreatment, Time 320): 104.0 and 125.0 and 126.0
- PAP ([2]; L-NAME pretreatment, Time 320): 33.8 and 23.1 and 24.0
- BP ([2]; L-NAME pretreatment, Time 330): 105.0 and 126.0 and 125.0
- PAP ([2]; L-NAME pretreatment, Time 330): 34.1
- BP ([2]; L-NAME pretreatment, Time 340): 104.0 and 126.0 and 125.0
- BP ([2]; without pretreatment, Time 170): 90.0 and 108.0
- PAP ([2]; without pretreatment, Time 170): 39.7 and 38.0 and 42.6
- BP ([2]; without pretreatment, Time 180): 90.0 and 108.0
- PAP ([2]; without pretreatment, Time 180): 38.5 and 37.1 and 41.5
- BP ([2]; without pretreatment, Time 190): 90.0 and 107.0 and 108.0
- PAP ([2]; without pretreatment, Time 190): 37.0 and 35.9 and 40.3
- BP ([2]; without pretreatment, Time 200): 89.0 and 109.0
- PAP ([2]; without pretreatment, Time 200): 36.5 and 35.2 and 39.0
- BP ([2]; without pretreatment, Time 210): 89.0 and 108.0 and 109.0
- PAP ([2]; without pretreatment, Time 210): 35.6 and 34.2 and 38.5
- BP ([2]; without pretreatment, Time 220): 88.0 and 110.0 and 108.0
- PAP ([2]; without pretreatment, Time 220): 34.7 and 33.9 and 36.8
- BP ([2]; without pretreatment, Time 230): 87.0 and 108.0
- PAP ([2]; without pretreatment, Time 230): 34.8 and 33.4 and 37.1
- BP ([2]; without pretreatment, Time 240): 87.0 and 109.0 and 108.0
- PAP ([2]; without pretreatment, Time 240): 34.5 and 33.6 and 37.0
- BP ([2]; without pretreatment, Time 250): 86.0 and 110.0 and 109.0
- PAP ([2]; without pretreatment, Time 250): 34.3 and 33.5 and 36.7
- BP ([2]; without pretreatment, Time 260): 87.0 and 109.0 and 110.0
- PAP ([2]; without pretreatment, Time 260): 34.1 and 33.3 and 36.5
- BP ([2]; without pretreatment, Time 270): 86.0 and 108.0 and 110.0
- PAP ([2]; without pretreatment, Time 270): 34.0 and 33.6 and 36.2
- BP ([2]; without pretreatment, Time 280): 88.0 and 109.0
- PAP ([2]; without pretreatment, Time 280): 34.5 and 33.5 and 35.6
- BP ([2]; without pretreatment, Time 290): 88.0 and 108.0 and 110.0
- PAP ([2]; without pretreatment, Time 290): 34.7 and 33.6 and 35.5
- BP ([2]; without pretreatment, Time 300): 86.0 and 107.0 and 111.0
- PAP ([2]; without pretreatment, Time 300): 34.1 and 33.2 and 35.4
- BP ([2]; without pretreatment, Time 310): 85.0 and 107.0 and 109.0
- PAP ([2]; without pretreatment, Time 310): 34.0 and 33.6 and 35.1
- BP ([2]; without pretreatment, Time 320): 85.0 and 108.0 and 109.0
- PAP ([2]; without pretreatment, Time 320): 34.5 and 34.0 and 35.8
- BP ([2]; without pretreatment, Time 330): 85.0 and 108.0 and 109.0
- PAP ([2]; without pretreatment, Time 330): 34.8 and 34.0 and 35.9
- BP ([2]; without pretreatment, Time 340): 85.0
- effect on PAP after pretreatment of ODQ or L-NAME ([2]; inhaled, comparative example 11 30 μg/kg ND, Ventavis 10 μg/kg nominal dose): enhanced decrease of PAP without effects on systemic BP
- inhibition at 0.1 mg/kg ([3]; read-out: inhibition of the airway hyperresponsiveness (ED100)): 38%
- inhibition at 0.1 mg/kg ([3]; read-out: inhibition of the airway hyperresponsiveness (ED150)): 32%
- inhibition of the eosinophilic influx ([3]; high dose group (100 μg)): 31%
- effect on airway hyperresponsiveness ([3]; low dose (10 μg)): no or only marginal effects
- inhibition of the eosinophilic influx ([3]; low dose group (10 μg)): 19%
- Relaxation (%) (timepoint at 70 min) Mean [4]: 72.2%
- Relaxation (%) (timepoint at 130 min) Mean [4]: 51.3%
